{"source": "patent US7750166B2", "about": "“Ionic liquids containing a sulfonate anion” (University of South Alabama, priority 2002, dated 2010)", "remark": "listed apart in the source", "key": {"[1]": {"assay": "Solubility in water", "type": "physicochemical"}, "[2]": {"assay": "Solubility in common organic solvents", "type": "physicochemical", "conditions": "such as dichloromethane and acetone", "procedure": "This example details the synthesis of a tetrabutyl ammonium molten salt of the amide having chemical formula III above. One-tenth of a mole (50 g) of the sodium salt of the amide-sulfonate salt having chemical structure III above (with R2 and R4 being CH2CH3, R1 and R5 each being a 2-ethylhexyl group, and R3 being CH2) was dissolved in 250 mL of dichloromethane, and one-tenth mole (32 g) of tetrabutyl ammonium bromide was added as a solid. The mixture was stirred for a day, after which time the solution was filtered first through filter paper and then through a short plug of silica gel. The eluted dichloromethane solution was quickly washed with water, dried over magnesium sulfate, and the solvent removed in vacuo, leaving the desired product in high yield (64 g, 89%). The product salt is soluble in both water and in several common organic solvents, such as dichloromethane and acetone. The melting range of the resulting salt was less than about 30° C. because the product was a viscous oil at room temperature. The product salt included Bis (N-ethyl-N-(2-ethylhexyl)sulfosuccinate diamide) anion paired with tetrabutyl ammonium cation."}, "[3]": {"procedure": "Supercritical applications using CO2 typically operate at temperatures between above 32° C. and pressures above about 1,070 psi."}}, "note": "Read-outs that look alike come from different tables or passages of the source.", "data": [{"smiles": "CCCCC(CC)COC(=O)CC(C(=O)OCC(CC)CCCC)S(=O)(=O)[O-].CCCC[N+](C)(CCCC)CCCC", "note": "(stereo not drawn) [Example 2, Me(n-Bu)3N Docusate]", "values": [{"measurement": "Solubility in water", "setting": "[1]", "result": "Hydrophobic"}]}, {"smiles": "CCCCC(CC)CN(CC)C(=O)CC(C(=O)N(CC)CC(CC)CCCC)S(=O)(=O)[O-].CCCC[N+](CCCC)(CCCC)CCCC", "note": "(stereo not drawn) [Example 11]", "values": [{"measurement": "Solubility in several common organic solvents", "setting": "[2]", "result": "soluble"}, {"measurement": "Solubility in water", "setting": "[1]", "result": "soluble"}]}, {"smiles": "CCCCC(CC)COC(=O)CC(C(=O)OCC(CC)CCCC)S(=O)(=O)[O-].CCCCC(CC)COC(=O)CC(C(=O)OCC(CC)CCCC)S(=O)(=O)[O-].C[N+](C)(C)CCCCCC[N+](C)(C)C", "note": "(stereo not drawn) [Example 3, Me3N(CH2)6NMe3 Docusate]", "values": [{"measurement": "Solubility in water", "setting": "[1]", "result": "Hydrophobic"}]}, {"smiles": "CCCCC(CC)COC(=O)CC(C(=O)OCC(CC)CCCC)S(=O)(=O)[O-].CCCC[N+](CCCC)(CCCC)CCCC", "note": "(stereo not drawn) [Example 1, tetrabutylammonium docusate]", "values": [{"measurement": "Solubility in supercritical carbon dioxide (CO2)", "setting": "[3]", "result": "soluble"}]}, {"smiles": "CCCCC(CC)COC(=O)CC(C(=O)OCC(CC)CCCC)S(=O)(=O)[O-].CC[N+](CC)(CC)CC", "note": "(stereo not drawn) [Example 5, Et4N Docusate]", "values": [{"measurement": "Solubility in water", "setting": "[1]", "result": "miscible"}]}, {"smiles": "CCCCC(CC)COC(=O)CC(C(=O)OCC(CC)CCCC)S(=O)(=O)[O-].CCCCCCn1cc[n+](C)c1", "note": "(stereo not drawn) [Example 6, 1-n-hexyl-3-methyl imidazolium docusate]", "values": [{"measurement": "Phase behaviour on contact with water", "setting": "addition of additional water to the gel, followed by agitation", "result": "formation of two phases"}, {"measurement": "Phase behaviour on contact with water", "setting": "contacted with 40 volume percent or less of water, even after agitation", "result": "formation of two phases"}, {"measurement": "Phase behaviour on contact with water", "setting": "contacted with 50 volume percent water, agitation", "result": "stiff, visibly monophasic gel"}]}]}
